Earlier results in Sander's compilation of Henry's law constants.
“And” between values parts separate entries of the source, which are not always exact repeats. Identical values can stand only once.

Test: Henry solubility constant Hcp at 298.15 K (mol/(m3 Pa))
Conditions: cited value
[1] = reference: Burkholder et al. (2015)
[2] = reference: Burkholder et al. (2019)
[3] = reference: Sander et al. (2006)
[4] = reference: Sander et al. (2011)
[5] = reference: Meynier et al. (2003)
[6] = reference: Fogg and Sangster (2003)
[7] = reference: Barcelo and Hennion (1997)
[8] = reference: Meylan and Howard (1991)
[9] = reference: Dohnal et al. (2006)

C=C(C)C(=O)OC [methyl methacrylate]
Henry solubility constant Hcp (reference: Brockbank (2013)): 0.029

O=S=O [sulfur dioxide]
Henry solubility constant Hcp (reference: Beilke and Gravenhorst (1978)): 0.012
Henry solubility constant Hcp [1]: 0.013
Henry solubility constant Hcp [2]: 0.013
Henry solubility constant Hcp (reference: Edwards et al. (1978)): 0.012
Henry solubility constant Hcp (reference: Maahs (1982)): 0.012
Henry solubility constant Hcp (reference: Pandis and Seinfeld (1989)): 0.012
Henry solubility constant Hcp (reference: Rodríguez-Sevilla et al. (2001)): 0.012
Henry solubility constant Hcp [3]: 0.013
Henry solubility constant Hcp [4]: 0.013
Henry solubility constant Hcp (reference: Yoo et al. (1986)): 0.012
Henry solubility constant Hcp (reference: Young (1983)): 0.013

CC(=O)OCCC(C)C [3-methylbutyl ethanoate]
Henry solubility constant Hcp (reference: Brockbank (2013)): 0.021
Henry solubility constant Hcp (reference: Goldstein (1982)): 0.024
Henry solubility constant Hcp [5]: 0.017

CCCCCCCCC=O [nonanal]
Henry solubility constant Hcp (reference: Brockbank (2013)): 0.011

CCC(C)Cl (stereo not given) [2-chlorobutane]
Henry solubility constant Hcp (reference: Brockbank (2013)): 0.00041

ClC(Cl)=C(Cl)C(Cl)=C(Cl)Cl [hexachlorobutadiene]
Henry solubility constant Hcp (reference: Brockbank (2013)): 0.00056
Henry solubility constant Hcp [6]: 0.00083
Henry solubility constant Hcp (reference: Goldstein (1982)): 0.00098
Henry solubility constant Hcp (reference: Horvath and Getzen (1999)): 0.00096

CCCC(C)C [2-methylpentane]
Henry solubility constant Hcp (reference: Brockbank (2013)): 6.4e-06

COP(=S)(OC)Oc1ccc([N+](=O)[O-])cc1 [methylparathion]
Henry solubility constant Hcp [7]: 0.47

CN(Cl)Cl [N,N-dichloromethylamine]
Henry solubility constant Hcp [1]: 0.0033
Henry solubility constant Hcp [2]: 0.0033

[CH3][Hg][CH3] [dimethylmercury]
Henry solubility constant Hcp (reference: Abraham et al. (2008)): 0.0021
Henry solubility constant Hcp (reference: WHO (1990)): 0.0013

CC(=O)C(C)C [3-methyl-2-butanone]
Henry solubility constant Hcp (reference: Brockbank (2013)): 0.11

CCN [ethanamine]
Henry solubility constant Hcp (reference: Brockbank (2013)): 0.84
Henry solubility constant Hcp [1]: 0.8
Henry solubility constant Hcp [2]: 0.8

COc1c(Cl)ccc(Cl)c1C(=O)O [dicamba]
Henry solubility constant Hcp [7]: 82

CCNc1ccccc1 [(ethylamino)-benzene]
Henry solubility constant Hcp (reference: Brockbank (2013)): 0.81

Cc1ccc(N)c(C)c1 [2,4-dimethylbenzenamine]
Henry solubility constant Hcp (reference: Brockbank (2013)): 2.8

Brc1ccccc1 [bromobenzene]
Henry solubility constant Hcp (reference: Brockbank (2013)): 0.0043
Henry solubility constant Hcp [6]: 0.005
Henry solubility constant Hcp (reference: HSDB (2015)): 0.0047

[Br][Hg][Br] [mercury dibromide]
Henry solubility constant Hcp (reference: Kanefke (2008)): 960

CN(C)C(=O)Nc1ccccc1 [fenuron]
Henry solubility constant Hcp [7]: 36

ClC1=C(Cl)C2(Cl)C3C(Cl)C=CC3C1(Cl)C2(Cl)Cl (stereo not given) [heptachlor]
Henry solubility constant Hcp [7]: 8.8e-05
Henry solubility constant Hcp (reference: McCarty (1980)): 0.0043
Henry solubility constant Hcp [8]: 0.0067

ClC1=C(Cl)[C@]2(Cl)[C@H]3[C@H]([C@@H]4C=C[C@H]3C4)[C@@]1(Cl)C2(Cl)Cl [aldrin]
Henry solubility constant Hcp [7]: 0.00011
Henry solubility constant Hcp [8]: 0.02

CCO [ethanol]
Henry solubility constant Hcp (reference: Brockbank (2013)): 1.8
Henry solubility constant Hcp [1]: 1.9
Henry solubility constant Hcp [2]: 1.9
Henry solubility constant Hcp [9]: 1.8
Henry solubility constant Hcp (reference: Dubowski (1979)): 1.9
Henry solubility constant Hcp [6]: 1.7
Henry solubility constant Hcp (reference: Gaffney and Senum (1984)): 2
Henry solubility constant Hcp [3]: 2
Henry solubility constant Hcp [4]: 1.9
Henry solubility constant Hcp (reference: Schaffer and Daubert (1969)): 1.5
Henry solubility constant Hcp (reference: Timmermans (1960)): 1.6
Henry solubility constant Hcp (reference: Warneck (2006)): 1.9

CCOC(C)(C)CC [2-ethoxy-2-methylbutane]
Henry solubility constant Hcp (reference: Brockbank (2013)): 0.005

Cc1ccc(O)c(C)c1 [1-hydroxy-2,4-dimethylbenzene]
Henry solubility constant Hcp (reference: Brockbank (2013)): 3.5
Henry solubility constant Hcp (reference: Goldstein (1982)): 4.1
Henry solubility constant Hcp (reference: Howard (1989)): 16
Henry solubility constant Hcp (reference: Petrasek et al. (1983)): 17

Clc1ccc2ccccc2c1 [2-chloronaphthalene]
Henry solubility constant Hcp (reference: Goldstein (1982)): 0.016

COC(=O)c1ccccc1 [methyl benzoate]
Henry solubility constant Hcp (reference: Brockbank (2013)): 0.29

CC(C)c1ccccc1 [(2-propyl)-benzene]
Henry solubility constant Hcp (reference: Brockbank (2013)): 0.0009

CCOP(=S)(OCC)SCSP(=S)(OCC)OCC [ethion]
Henry solubility constant Hcp [7]: 0.31

BrCBr [dibromomethane]
Henry solubility constant Hcp (reference: Brockbank (2013)): 0.012
Henry solubility constant Hcp [2]: 0.012

CCCCC(=O)OCC [ethyl pentanoate]
Henry solubility constant Hcp [5]: 0.027

Cc1ccccc1C [1,2-dimethylbenzene]
Henry solubility constant Hcp (reference: Brockbank (2013)): 0.002
Henry solubility constant Hcp [6]: 0.0024

Clc1ccc(C(c2ccc(Cl)cc2)C(Cl)(Cl)Cl)cc1 [1,1,1-trichloro-2,2-bis-(4-chlorophenyl)-ethane]
Henry solubility constant Hcp [7]: 0.0042

CCCCCOC(=O)CCC [pentyl butanoate]
Henry solubility constant Hcp (reference: Brockbank (2013)): 0.017

BrC(Br)C(Br)Br [1,1,2,2-tetrabromoethane]
Henry solubility constant Hcp (reference: Brockbank (2013)): 0.014
Henry solubility constant Hcp [2]: 0.014

Cc1ccncc1 [4-methylpyridine]
Henry solubility constant Hcp (reference: Brockbank (2013)): 1.6

ClC(Cl)C(Cl)(Cl)Cl [pentachloroethane]
Henry solubility constant Hcp (reference: Brockbank (2013)): 0.0042
Henry solubility constant Hcp [2]: 0.0041

C=COC(C)=O [ethenyl ethanoate]
Henry solubility constant Hcp (reference: Brockbank (2013)): 0.02
Henry solubility constant Hcp [1]: 0.02
Henry solubility constant Hcp [2]: 0.02
Henry solubility constant Hcp (reference: Goldstein (1982)): 0.017

Cc1ccc2ccccc2c1 [2-methylnaphthalene]
Henry solubility constant Hcp (reference: Brockbank (2013)): 0.02
Henry solubility constant Hcp [6]: 0.018
Henry solubility constant Hcp (reference: Mackay et al. (1992b)): 0.02

COP(=O)(NC(C)=O)SC (stereo not given) [acephate]
Henry solubility constant Hcp [7]: 190000

ClCc1ccccc1 [(chloromethyl)-benzene]
Henry solubility constant Hcp (reference: Brockbank (2013)): 0.022

C[C@@H]1CCCC[C@@H]1C [cis-1,2-dimethylcyclohexane]
Henry solubility constant Hcp (reference: Brockbank (2013)): 2.6e-05

CC(=O)Oc1ccccc1 [phenyl ethanoate]
Henry solubility constant Hcp (reference: Brockbank (2013)): 1.3

CCCO [1-propanol]
Henry solubility constant Hcp (reference: Brockbank (2013)): 1.5
Henry solubility constant Hcp [1]: 1.4
Henry solubility constant Hcp [2]: 1.4
Henry solubility constant Hcp [9]: 1.4
Henry solubility constant Hcp [6]: 1.4
Henry solubility constant Hcp [3]: 1.3
Henry solubility constant Hcp [4]: 1.4

CCCCCCC(=O)CC [3-nonanone]
Henry solubility constant Hcp (reference: Brockbank (2013)): 0.051

O=[O+][O-] [ozone]
Henry solubility constant Hcp (reference: Biń (2005)): 7.6e-05
Henry solubility constant Hcp [1]: 0.0001
Henry solubility constant Hcp [2]: 0.0001
Henry solubility constant Hcp (reference: Perry and Chilton (1973)): 0.00012
Henry solubility constant Hcp [3]: 0.0001
Henry solubility constant Hcp [4]: 0.0001
Henry solubility constant Hcp (reference: Warneck (2003)): 0.00011

CS [methanethiol]
Henry solubility constant Hcp [1]: 0.0038
Henry solubility constant Hcp [2]: 0.0038
Henry solubility constant Hcp (reference: Goldstein (1982)): 0.0026
Henry solubility constant Hcp [3]: 0.0038
Henry solubility constant Hcp [4]: 0.0038

N#Cc1c(Cl)cccc1Cl [2,6-dichlorobenzenenitrile]
Henry solubility constant Hcp [7]: 0.015

CCCOC(=O)CCC [propyl butanoate]
Henry solubility constant Hcp (reference: Brockbank (2013)): 0.018

[N]=O [nitrogen monoxide]
Henry solubility constant Hcp (reference: Loomis (1928)): 1.9e-05
Henry solubility constant Hcp [3]: 1.9e-05
Henry solubility constant Hcp [4]: 1.9e-05
Henry solubility constant Hcp (reference: Schwartz and White (1981)): 1.9e-05
Henry solubility constant Hcp (reference: Young (1981b)): 1.9e-05

CCOP(=S)(OCC)SCSC(C)(C)C [terbufos]
Henry solubility constant Hcp [7]: 0.0099

O=COCc1ccccc1 [benzyl methanoate]
Henry solubility constant Hcp (reference: Brockbank (2013)): 2

CCS [ethanethiol]
Henry solubility constant Hcp [1]: 0.0028
Henry solubility constant Hcp [2]: 0.0028
Henry solubility constant Hcp [3]: 0.0028
Henry solubility constant Hcp [4]: 0.0028

Oc1ccccc1Cl [2-hydroxychlorobenzene]
Henry solubility constant Hcp (reference: Goldstein (1982)): 1.2
Henry solubility constant Hcp (reference: Howard (1989)): 18

FC(F)(F)F [tetrafluoromethane]
Henry solubility constant Hcp [1]: 2.1e-06
Henry solubility constant Hcp [2]: 2.1e-06
Henry solubility constant Hcp [4]: 2.1e-06

COC(=O)c1ccccc1C(=O)OC [dimethyl phthalate]
Henry solubility constant Hcp (reference: Brockbank (2013)): 51
Henry solubility constant Hcp (reference: Goldstein (1982)): 29 and 30
Henry solubility constant Hcp (reference: McCarty (1980)): 23

COO [methyl hydroperoxide]
Henry solubility constant Hcp (reference: Brockbank (2013)): 3
Henry solubility constant Hcp [1]: 3
Henry solubility constant Hcp [2]: 3
Henry solubility constant Hcp [3]: 3
Henry solubility constant Hcp [4]: 3

CC1CO1 (stereo not given) [1,2-epoxypropane]
Henry solubility constant Hcp (reference: Goldstein (1982)): 0.052 and 0.051

Cc1ccc(C)cc1 [1,4-dimethylbenzene]
Henry solubility constant Hcp (reference: Brockbank (2013)): 0.0014
Henry solubility constant Hcp [6]: 0.0019
Henry solubility constant Hcp (reference: Foster et al. (1994)): 0.0014

CC(C)CCO [3-methyl-1-butanol]
Henry solubility constant Hcp (reference: Brockbank (2013)): 0.82

Cc1ccc(Cl)cc1Cl [2,4-dichloro-1-methylbenzene]
Henry solubility constant Hcp (reference: Brockbank (2013)): 0.0027

COC(=O)c1ccccc1O [2-hydroxybenzoic acid methyl ester]
Henry solubility constant Hcp (reference: Brockbank (2013)): 1.6

CC(=O)C(Cl)Cl [1,1-dichloro-2-propanone]
Henry solubility constant Hcp [1]: 0.33
Henry solubility constant Hcp [2]: 0.33

c1ccc2c(c1)-c1cccc3c1c-2cc1ccccc13 [benzo[b]fluoranthene]
Henry solubility constant Hcp (reference: Brockbank (2013)): 15

FC(F)(F)C(F)(F)C(F)(F)C(F)(F)C(F)(F)C(F)(F)C(F)(F)F [hexadecafluoroheptane]
Henry solubility constant Hcp (reference: Brockbank (2013)): 3e-09

CC(=O)C(=O)O [2-oxopropanoic acid]
Henry solubility constant Hcp [1]: 3100
Henry solubility constant Hcp [2]: 3100
Henry solubility constant Hcp [3]: 3100
Henry solubility constant Hcp [4]: 3100

C=CC1(C)OC(=O)N(c2cc(Cl)cc(Cl)c2)C1=O (stereo not given) [vinclozoline]
Henry solubility constant Hcp [7]: 7.6
